The values that follow come from US11999727B2 (Tango Therapeutics, Inc., priority 2020, dated 2024).

Experiment [1] deals with T1, PRMT5 (Homo sapiens, UniProt O14744).
T1 construct: purchased Viva (custom protein)
Kind of experiment: PRMT5 biochemical IC50 assay with SAM as cofactor. As to conditions: PRMT5, SAM as cofactor; read-out: SAM IC50.

Experiment [2] concerns the target T1, PRMT5. Put plainly: PRMT5 biochemical IC50 assay with no cofactor. Particulars: PRMT5, no cofactor. From the text: Table 1 indicates IC50 values (μM) against PRMT5 for exemplary compounds in the presence of SAM as cofactor, with no cofactor, and with MTA as cofactor, respectively (columns 4-6). […] Ki values can be calculated from the IC50 values as described in the Examples section. As detailed in the Examples section, for the assay performed in the presence of SAM, IC50=Ki×1.5 (Ki=IC50/1.5).

The target in experiment [3] is T1, PRMT5. Put plainly: PRMT5 biochemical IC50 assay with MTA as cofactor. As to conditions: PRMT5, MTA as cofactor; read-out: MTA IC50.
Experiment [4] relates to HAP1 MTAP-intact cell line. Kind of experiment: SDMA in-cell western assay, HAP1 MTAP-intact. Format: cell-based. As to conditions: Homo sapiens, HAP1, SDMA in-cell western, HAP1 MTAP-intact; read-out: MTAP HAP1 intact IC50. In short, it runs like this: (§1)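 Isogenic HAP1 pair: the MTAP-intact line expresses endogenous MTAP, and the deleted line is MTAP-null. Symmetric dimethylarginine was detected by in-cell western and IC50 values derived for each line.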

Experiment [5] deals with HAP1 MTAP-deleted cell line. Kind of experiment: SDMA in-cell western assay, HAP1 MTAP-deleted. It counts as cell-based. Particulars: for IC50: Homo sapiens, HAP1, SDMA in-cell western, HAP1 MTAP-deleted; for MTAP intact/deleted ratio: SDMA in-cell western. In short, it runs like this:
as §1

In experiment [6] the test system is HAP1 MTAP-deleted cell line. Put plainly: Viability assay, MTAP-deleted cell line. Format: cell-based. As to conditions: Homo sapiens, read-out: HAP1 MTAP deleted viability. The text has this: Table 1 additionally indicates IC50 values in a viability assay for the MTAP-deleted cell line (column 10), indicating the effect of treatment with compound on cell survival.

Where [7] appears, read: read-out: HAP1 MTAP deleted IC50.
[8] abbreviates: IC50 ratio HAP1 MTAP-intact / HAP1 MTAP-deleted.
Where [9] appears, read: HAP1, viability assay, MTAP-deleted cell line.
The mark [10] stands for this setting: read-out: No Cofactor/ rel IC50.
The mark [11] stands for this setting: read-out: HAP 1 MTAP deleted IC50.
The mark [12] stands for this setting: HAP1, viability, HAP1 MTAP-deleted cell line.
Setting [13] is: HAP1, viability assay, HAP1 MTAP-deleted.

Where only a bound is given, the exact number is not on record here.

T1 sequence (O14744 whole entry): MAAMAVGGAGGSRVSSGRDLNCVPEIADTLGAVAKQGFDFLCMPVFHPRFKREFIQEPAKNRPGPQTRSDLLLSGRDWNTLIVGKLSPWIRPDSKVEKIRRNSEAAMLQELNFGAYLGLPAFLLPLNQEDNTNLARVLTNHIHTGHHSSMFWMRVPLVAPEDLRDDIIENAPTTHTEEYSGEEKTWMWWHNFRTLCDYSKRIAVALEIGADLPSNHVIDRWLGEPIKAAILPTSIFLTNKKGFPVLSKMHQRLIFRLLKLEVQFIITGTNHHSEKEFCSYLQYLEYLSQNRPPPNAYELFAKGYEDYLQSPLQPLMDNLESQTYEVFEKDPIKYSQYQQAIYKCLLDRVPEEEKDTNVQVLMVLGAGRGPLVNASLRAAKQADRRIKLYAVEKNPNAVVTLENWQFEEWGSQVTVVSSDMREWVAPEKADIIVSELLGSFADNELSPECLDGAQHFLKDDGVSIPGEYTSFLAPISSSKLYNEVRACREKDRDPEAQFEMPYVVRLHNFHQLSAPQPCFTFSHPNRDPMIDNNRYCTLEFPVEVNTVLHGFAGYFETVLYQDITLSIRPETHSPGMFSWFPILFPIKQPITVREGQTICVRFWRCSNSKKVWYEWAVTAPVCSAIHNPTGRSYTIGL
T1 sequence (Q9BQA1 whole entry partner): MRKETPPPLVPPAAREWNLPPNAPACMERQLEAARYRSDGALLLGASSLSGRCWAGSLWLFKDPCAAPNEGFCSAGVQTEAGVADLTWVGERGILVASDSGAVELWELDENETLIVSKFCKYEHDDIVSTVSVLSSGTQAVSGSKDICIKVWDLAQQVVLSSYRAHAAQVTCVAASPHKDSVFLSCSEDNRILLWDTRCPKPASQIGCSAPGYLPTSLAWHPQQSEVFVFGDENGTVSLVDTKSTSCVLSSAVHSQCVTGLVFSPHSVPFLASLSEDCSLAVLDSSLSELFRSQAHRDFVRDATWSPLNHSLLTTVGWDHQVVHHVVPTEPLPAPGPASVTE

In the case of `CNc1ccc([C@@H]2CC[C@H](C)CN2C(=O)C(=O)Nc2cnc(OC)c(C(N)=O)c2)cn1` (single isomer, unassigned) [Compound 468], the IC50 at PRMT5 [1] was > 500 nM; on PRMT5 [2] (read-out: No Cofactor/rel IC50) it was > 500 nM; at PRMT5 [3], > 500 nM; in experiment [4], > 1000 nM; in experiment [5] (setting [7]), > 1000 nM; in experiment [6] (setting [9]), > 10000 nM. Moreover, the MTAP intact/deleted ratio entry in experiment [5] (setting [8]) is listed as “C (an IC50 ratio of less than 3 fold)”.
`CCc1cc(NC(=O)C(=O)N2C[C@H](C)CC[C@H]2c2ccc(N3CCC4(CCCN(C)C4)CC3)cc2)cnc1N` (single isomer, unassigned) [Compound 1269]: the IC50 was > 500 nM at PRMT5 [1]; > 500 nM on PRMT5 [2] (setting [10]); 50 to 500 nM on PRMT5 [3]; > 1000 nM in experiment [4]; 100 to 1000 nM in experiment [5] (setting [11]); 1000 to 10000 nM in experiment [6] (setting [12]).
With `COc1ncc(NC(=O)C(=O)N2C[C@@H](C)CC[C@@H]2c2ccc3sc([C@@H]4CCN(C)C4)nc3c2)cc1C(N)=O` (racemic) [Compound 1278, 2-methoxy-5-[[2-oxo-2-[rac-(2R,5S)-5-methyl-2-[2-[rac-(3R)-1-methylpyrrolidin-3-yl]-1,3-benzothiazol-5-yl]-1-piperidyl]acetyl]amino]pyridine-3-carboxamide], the IC50 is < 50 nM at PRMT5 [1]; < 50 nM on PRMT5 [2] (setting [10]); < 50 nM on PRMT5 [3]; < 100 nM in experiment [4]; < 100 nM in experiment [5] (setting [11]); < 1000 nM in experiment [6] (setting [12]). In addition, the “MTAP intact/deleted ratio” value in experiment [5] (setting [8]) was “A (an IC50 ratio greater than or equal to 10 fold)”.
Take `C[C@@H]1CC[C@@H](c2cnc3ccccc3c2)N(C(=O)C(=O)Nc2cncc(C(N)=O)c2)C1` (racemic) [Compound 257, rac-5-{2-[(2R,5S)-5-Methyl-2-(quinolin-3-yl)piperidin-1-yl]-2-oxoacetamido}pyridine-3-carboxamide]: the IC50 on PRMT5 [1] was > 500 nM; at PRMT5 [2] (read-out: No Cofactor/rel IC50), > 500 nM; on PRMT5 [3], 50 to 500 nM; in experiment [4], > 1000 nM; in experiment [5] (setting [7]), > 1000 nM; in experiment [6] (setting [9]) it was > 10000 nM. Also, the MTAP intact/deleted ratio result in experiment [5] (setting [8]) is “B (an IC50 ratio greater than or equal to 3 fold but lower than 10 fold)”.
In the case of `Cc1cc(NC(=O)C(=O)N2CC(C)CCC2C2CNC(=O)C2)cnc1N` (centres unmarked) [Compound 210, N-(6-amino-5-methylpyridin-3-yl)-2-(5-methyl-2-(5-oxopyrrolidin-3-yl)piperidin-1-yl)-2-oxoacetamide], the IC50 was > 500 nM on PRMT5 [1]; 50 to 500 nM on PRMT5 [2] (read-out: No Cofactor/rel IC50); 50 to 500 nM at PRMT5 [3]; > 1000 nM in experiment [4]; > 1000 nM in experiment [5] (setting [7]); > 10000 nM in experiment [6] (setting [9]). In addition, the MTAP intact/deleted ratio result in experiment [5] (setting [8]) is recorded as “B (an IC50 ratio greater than or equal to 3 fold but lower than 10 fold)”.
In the case of `Cc1cc([C@@H]2CC[C@@H](C)CN2C(=O)C(=O)Nc2cncc(C(N)=O)c2)ccc1Cl` (racemic) [Compound 173, rac-5-{2-[(2R,5S)-2-(4-Chloro-3-methylphenyl)-5-methylpiperidin-1-yl]-2-oxoacetamido}pyridine-3-carboxamide], the IC50 is 50 to 500 nM at PRMT5 [1]; 50 to 500 nM on PRMT5 [2] (setting [10]); < 50 nM on PRMT5 [3]; > 1000 nM in experiment [4]; < 100 nM in experiment [5] (setting [11]); 1000 to 10000 nM in experiment [6] (setting [9]). Also, the “MTAP intact/deleted ratio” value in experiment [5] (setting [8]) is listed as “A (an IC50 ratio greater than or equal to 10 fold)”.
For the compound `Cc1cc(NC(=O)C(=O)N2C[C@@H](C)CC[C@H]2C23CC(O)(C2)C3)cnc1N` (racemic) [Compound 774], the IC50 on PRMT5 [1] is > 500 nM; on PRMT5 [2] (read-out: No Cofactor/rel IC50), > 500 nM; on PRMT5 [3], 50 to 500 nM; in experiment [4], > 1000 nM; in experiment [5] (setting [7]) it was > 1000 nM; in experiment [6] (setting [13]), > 10000 nM. The MTAP intact/deleted ratio entry in experiment [5] (setting [8]) is reported as “B (an IC50 ratio greater than or equal to 3 fold but lower than 10 fold)”.
For `C[C@@H]1CC[C@@H](c2ccc(C(F)(F)F)cc2)N(C(=O)C(=O)Nc2cncc(C(N)=O)c2)C1` (single isomer, unassigned) [Compound 508], the IC50 at PRMT5 [1] is > 500 nM; at PRMT5 [2] (read-out: No Cofactor/rel IC50) it was > 500 nM; on PRMT5 [3] it was > 500 nM; in experiment [4] it was > 1000 nM; in experiment [5] (setting [7]), > 1000 nM; in experiment [6] (setting [9]), > 10000 nM. In addition, in experiment [5] (setting [8]), the MTAP intact/deleted ratio entry is listed as “C (an IC50 ratio of less than 3 fold)”.
Regarding `Cc1cc(NC(=O)C(=O)N2C[C@@H](C)CC[C@@H]2c2ccc3sc(C4CCN(CCF)CC4)nc3c2)cnc1N` [Compound 1114, N-(6-amino-5-methylpyridin-3-yl)-2-((2R,5S)-2-(2-(1-(2-fluoroethyl)piperidin-4-yl)benzo[d]thiazol-5-yl)-5-methylpiperidin-1-yl)-2-oxoacetamide], the IC50 at PRMT5 [1] is < 50 nM; on PRMT5 [2] (read-out: No Cofactor/rel IC50) it was < 50 nM; on PRMT5 [3], < 50 nM; in experiment [4] it was < 100 nM; in experiment [5] (setting [7]), < 100 nM; in experiment [6] (setting [9]), < 1000 nM. For the same compound, the MTAP intact/deleted ratio result in experiment [5] (IC50 ratio HAP1 MTAP-intact vs HAP1 MTAP-deleted) is recorded as “A (an IC50 ratio greater than or equal to 10 fold)”.
For `CCc1cc(NC(=O)C(=O)N2C[C@@H](C)CC[C@@H]2c2ccc3cc(C)c(C4CCN(C)CC4)nc3c2)cnc1N` [Compound 1368, N-(6-amino-5-ethyl-3-pyridyl)-2-oxo-2-[(2R,5S)-5-methyl-2-[3-methyl-2-(1-methyl-4-piperidyl)-7-quinolyl]-1-piperidyl]acetamide], the IC50 on PRMT5 [1] is 50 to 500 nM; at PRMT5 [2] (setting [10]), < 50 nM; at PRMT5 [3], < 50 nM; in experiment [4], < 100 nM; in experiment [5] (setting [11]) it was < 100 nM; in experiment [6] (setting [12]), < 1000 nM. In addition, the “MTAP intact/deleted ratio” value in experiment [5] (setting [8]) is given as “A (an IC50 ratio greater than or equal to 10 fold)”.
On to `C[C@@H]1CC[C@@H](c2ccc(N)cc2)N(C(=O)C(=O)Nc2cncc(C(N)=O)c2)C1` (single isomer, unassigned) [Compound 381], for which the IC50 on PRMT5 [1] is 50 to 500 nM; at PRMT5 [2] (read-out: No Cofactor/rel IC50) it was < 50 nM; on PRMT5 [3], < 50 nM; in experiment [4] it was > 1000 nM; in experiment [5] (setting [7]), < 100 nM; in experiment [6] (setting [9]), < 1000 nM. For the same compound, the MTAP intact/deleted ratio result in experiment [5] (setting [8]) was “A (an IC50 ratio greater than or equal to 10 fold)”.
On to `C[C@@H]1CC[C@@H](c2ccc(-c3cncs3)cc2)N(C(=O)C(=O)Nc2cncc(C(N)=O)c2)C1` (single isomer, unassigned) [Compound 817, 5-(2-(5-methyl-2-(4-(thiazol-5-yl)phenyl)piperidin-1-yl)-2-oxoacetamido)nicotinamide], for which the IC50 at PRMT5 [1] is > 500 nM; on PRMT5 [2] (read-out: No Cofactor/rel IC50), > 500 nM; at PRMT5 [3], > 500 nM; in experiment [4], > 1000 nM; in experiment [5] (setting [7]), > 1000 nM; in experiment [6] (setting [13]) it was > 10000 nM. The MTAP intact/deleted ratio result in experiment [5] (setting [8]) is listed as “C (an IC50 ratio of less than 3 fold)”.
For `C[C@@H]1CC[C@@H](c2ccc(O)c(F)c2)N(C(=O)C(=O)Nc2cncc(C(N)=O)c2)C1` (single isomer, unassigned) [Compound 355], the IC50 at PRMT5 [1] is > 500 nM; on PRMT5 [2] (read-out: No Cofactor/rel IC50), > 500 nM; on PRMT5 [3], > 500 nM; in experiment [4], > 1000 nM; in experiment [5] (setting [7]), > 1000 nM; in experiment [6] (setting [9]), > 10000 nM. Also, the MTAP intact/deleted ratio result in experiment [5] (setting [8]) is given as “C (an IC50 ratio of less than 3 fold)”.
`Cc1cc(NC(=O)C(=O)N2C[C@@H](C)[C@@H](CC(C)C)C[C@@H]2c2ccc3scnc3c2)cnc1N` (single isomer, unassigned) [Compound 1157]: the IC50 was > 500 nM on PRMT5 [1]; > 500 nM at PRMT5 [2] (read-out: No Cofactor/rel IC50); > 500 nM on PRMT5 [3]; > 1000 nM in experiment [4]; > 1000 nM in experiment [5] (setting [7]); > 10000 nM in experiment [6] (setting [9]).
Regarding `Cc1cc(NC(=O)C(=O)N2C[C@@H](C)C(F)(F)C[C@@H]2c2ccc(F)cc2)cnc1N` (single isomer, unassigned) [Compound 786], the IC50 on PRMT5 [1] was 50 to 500 nM; on PRMT5 [2] (read-out: No Cofactor/rel IC50) it was < 50 nM; on PRMT5 [3] it was < 50 nM; in experiment [4] it was 100 to 1000 nM; in experiment [5] (setting [7]), < 100 nM; in experiment [6] (setting [13]) it was < 1000 nM. In addition, the MTAP intact/deleted ratio result in experiment [5] (setting [8]) is “A (an IC50 ratio greater than or equal to 10 fold)”.
As for `CCc1cc(NC(=O)C(=O)N2C[C@@H](C)CC[C@@H]2c2ccc(N3CCC4(CCCN(C)C4)CC3)cc2)cnc1N` (single isomer, unassigned) [Compound 1243], the IC50 is 50 to 500 nM on PRMT5 [1]; < 50 nM on PRMT5 [2] (setting [10]); < 50 nM at PRMT5 [3]; 100 to 1000 nM in experiment [4]; < 100 nM in experiment [5] (setting [11]); < 1000 nM in experiment [6] (setting [12]). In experiment [5] (setting [8]), the “MTAP intact/deleted ratio” value is “A (an IC50 ratio greater than or equal to 10 fold)”.
